Legend:
[1] = molecular target: T1, KRAS (G12D) (Homo sapiens, UniProt P01116, G12D); test: KRAS (G12D) cellular degradation assay in AsPC-1 cells; type: cell-based; details: 24 hours, antibody fluorescence (Odyssey CLX), DC50 half-maximal degradation concentration
T1 construct: in-cell western with KRAS G12D antibody after 24 h
Summary of the method: (§1)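 Read-outs were KRAS G12D immunofluorescence against β-actin after 24 h (DC50) and CellTiter Glo luminescence after 6 days (IC50). Compounds were titrated 1:3 from […] to 1.5 nM final on AsPC-1 cells at 37 °C, 5% CO2.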

[2] = tested on: AsPC-1 cells; test: AsPC-1 cell proliferation assay (CellTiter Glo); type: cell-based; details: Homo sapiens, ASPC1, 144 h, 6 days
Summary of the method: as §1

T1 sequence (P01116 1-188 isoform P01116-2 G12D): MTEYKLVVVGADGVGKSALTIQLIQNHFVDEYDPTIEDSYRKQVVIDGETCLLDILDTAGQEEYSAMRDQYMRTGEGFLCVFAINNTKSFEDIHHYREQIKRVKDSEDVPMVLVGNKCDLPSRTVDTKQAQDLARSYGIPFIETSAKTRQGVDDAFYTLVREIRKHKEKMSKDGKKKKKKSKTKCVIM

Compound | DC50 [1] [nM] | IC50 [2] [nM]
CCn1nccc1-c1ccc([C@H](CO)NC(=O)[C@@H]2C[C@@H](O)CN2C(=O)[C@H](C(C)C)n2cc(-c3ccc(COc4c(-c5c(C)c(F)cc6[nH]ncc56)c(C5CC5)cc5c(N(C)[C@@H]6CCNC6)nc(OC[C@H](C)OC)nc45)cc3)nn2)c2c1CC2 [Example 192, (2S,4R)-1-((2S)-2-(4-(4-(((6-cyclopropyl-7-(6-fluoro-5-methyl-1H-indazol-4-yl)-2-((S)-2-methoxypropoxy)-4-(methyl((R)-pyrrolidin-3-yl)amino)quinazolin-8-yl)oxy)methyl)phenyl)-1H-1,2,3-triazol-1-yl)-3-methylbutanoyl)-N—((R)-1-(5-(1-ethyl-1H-pyrazol-5-yl)bicyclo[4.2.0]octa-1(6),2,4-trien-2-yl)-2-hydroxyethyl)-4-hydroxypyrrolidine-2-carboxamide] | < 10 | < 10
CCn1nccc1-c1ccc([C@@H](NC(=O)[C@@H]2C[C@@H](O)CN2C(=O)[C@H](C(C)C)n2cc(-c3ccc(COc4c(-c5c(C)c(F)cc6[nH]ncc56)c(C5CC5)cc5c(N6C[C@@H]7C[C@H]6CN7)nc(O[C@H]6C[C@H](OC)C6)nc45)cc3)nn2)[C@H](C)O)cn1 [Example 193, (2S,4R)-1-((2S)-2-(4-(4-(((4-((1S,4S)-2,5-diazabicyclo[2.2.1]heptan-2-yl)-6-cyclopropyl-7-(6-fluoro-5-methyl-1H-indazol-4-yl)-2-((1r,3S)-3-methoxycyclobutoxy)quinazolin-8-yl)oxy)methyl)phenyl)-1H-1,2,3-triazol-1-yl)-3-methylbutanoyl)-N-((1R,2S)-1-(6-(1-ethyl-1H-pyrazol-5-yl)pyridin-3-yl)-2-hydroxypropyl)-4-hydroxypyrrolidine-2-carboxamide] | 10 to 100 | < 10
CO[C@H]1C[C@H](Oc2nc(N(C)[C@H]3CCNC3)c3cc(C4CC4)c(-c4c(C)c(F)cc5[nH]ncc45)c(OCc4ccc(-c5cn([C@H](C(=O)N6C[C@H](O)C[C@H]6C(=O)N[C@H](c6ccc(-c7scnc7C)c7c6CC7)[C@H](C)O)C(C)C)nn5)cc4)c3n2)C1 [Example 194, (2S,4R)-1-((2S)-2-(4-(4-(((6-cyclopropyl-7-(6-fluoro-5-methyl-1H-indazol-4-yl)-2-((1r,3S)-3-methoxycyclobutoxy)-4-(methyl((S)-pyrrolidin-3-yl)amino)quinazolin-8-yl)oxy)methyl)phenyl)-1H-1,2,3-triazol-1-yl)-3-methylbutanoyl)-4-hydroxy-N-((1R,2S)-2-hydroxy-1-(5-(4-methylthiazol-5-yl)bicyclo[4.2.0]octa-1(6),2,4-trien-2-yl)propyl)pyrrolidine-2-carboxamide] | < 10 | < 10
CCn1nccc1-c1ccc([C@@H](NC(=O)[C@@H]2C[C@@H](O)CN2C(=O)[C@H](C(C)C)n2cc(-c3ccc(COc4c(-c5c(C)c(F)cc6[nH]ncc56)c(C5CC5)cc5c(N6C[C@@H]7C[C@H]6CN7)nc(O[C@H]6C[C@H](OC)C6)nc45)cc3)nn2)[C@H](C)O)cc1F [Example 195, (2S,4R)-1-((2S)-2-(4-(4-(((4-((1S,4S)-2,5-diazabicyclo[2.2.1]heptan-2-yl)-6-cyclopropyl-7-(6-fluoro-5-methyl-1H-indazol-4-yl)-2-((1r,3S)-3-methoxycyclobutoxy)quinazolin-8-yl)oxy)methyl)phenyl)-1H-1,2,3-triazol-1-yl)-3-methylbutanoyl)-N-((1R,2S)-1-(4-(1-ethyl-1H-pyrazol-5-yl)-3-fluorophenyl)-2-hydroxypropyl)-4-hydroxypyrrolidine-2-carboxamide] | < 10 | < 10
CCn1nccc1-c1cc(F)c([C@@H](NC(=O)[C@@H]2C[C@@H](O)CN2C(=O)[C@H](C(C)C)n2cc(-c3ccc(COc4c(-c5c(C)c(F)cc6[nH]ncc56)c(C5CC5)cc5c(N6C[C@@H]7C[C@H]6CN7)nc(O[C@H]6C[C@H](OC)C6)nc45)cc3)nn2)[C@H](C)O)c(F)c1 [Example 196, (2S,4R)-1-((2S)-2-(4-(4-(((4-((1S,4S)-2,5-diazabicyclo[2.2.1]heptan-2-yl)-6-cyclopropyl-7-(6-fluoro-5-methyl-1H-indazol-4-yl)-2-((1r,3S)-3-methoxycyclobutoxy)quinazolin-8-yl)oxy)methyl)phenyl)-1H-1,2,3-triazol-1-yl)-3-methylbutanoyl)-N-((1R,2S)-1-(4-(1-ethyl-1H-pyrazol-5-yl)-2,6-difluorophenyl)-2-hydroxypropyl)-4-hydroxypyrrolidine-2-carboxamide] | 10 to 100 | 10 to 100
CCn1nccc1-c1ccc([C@H](CO)NC(=O)[C@@H]2C[C@@H](O)CN2C(=O)[C@H](C(C)C)n2cc(-c3ccc(COc4c(-c5c(C)c(F)cc6[nH]ncc56)c(C5CC5)cc5c(N(C)[C@H]6[C@@H]7CN[C@H]6C7)nc(OC[C@H](C)OC)nc45)cc3)nn2)cc1 [Example 197, (2S,4R)-1-((2S)-2-(4-(4-(((4-(((1S,4S,5S)-2-azabicyclo[2.1.1]hexan-5-yl)(methyl)amino)-6-cyclopropyl-7-(6-fluoro-5-methyl-1H-indazol-4-yl)-2-((S)-2-methoxypropoxy)quinazolin-8-yl)oxy)methyl)phenyl)-1H-1,2,3-triazol-1-yl)-3-methylbutanoyl)-N—((R)-1-(4-(1-ethyl-1H-pyrazol-5-yl)phenyl)-2-hydroxyethyl)-4-hydroxypyrrolidine-2-carboxamide] | < 10 | < 10
CCn1nccc1-c1ccc([C@@H](NC(=O)[C@@H]2C[C@@H](O)CN2C(=O)[C@H](C(C)C)n2cc(-c3ccc(COc4c(-c5c(C)c(F)cc6[nH]ncc56)c(C5CC5)cc5c(N6C[C@@H]7C[C@H]6CN7)nc(O[C@H]6C[C@H](OC)C6)nc45)cc3)nn2)[C@H](C)O)c(F)c1 [Example 198, (2S,4R)-1-((2S)-2-(4-(4-(((4-((1S,4S)-2,5-diazabicyclo[2.2.1]heptan-2-yl)-6-cyclopropyl-7-(6-fluoro-5-methyl-1H-indazol-4-yl)-2-((1r,3S)-3-methoxycyclobutoxy)quinazolin-8-yl)oxy)methyl)phenyl)-1H-1,2,3-triazol-1-yl)-3-methylbutanoyl)-N-((1R,2S)-1-(4-(1-ethyl-1H-pyrazol-5-yl)-2-fluorophenyl)-2-hydroxypropyl)-4-hydroxypyrrolidine-2-carboxamide] | < 10 | < 10
CO[C@H]1C[C@H](Oc2nc(N3CCCNCC3)c3cc(C4CC4)c(-c4c(C)c(F)cc5[nH]ncc45)c(OCc4ccc(-c5cn([C@H](C(=O)N6C[C@H](O)C[C@H]6C(=O)N[C@@H](CO)c6ccc(-c7scnc7C)cc6)C(C)C)nn5)cc4)c3n2)C1 [Example 199, (2S,4R)-1-((2S)-2-(4-(4-(((6-cyclopropyl-4-(1,4-diazepan-1-yl)-7-(6-fluoro-5-methyl-1H-indazol-4-yl)-2-((1r,3r)-3-methoxycyclobutoxy)quinazolin-8-yl)oxy)methyl)phenyl)-1H-1,2,3-triazol-1-yl)-3-methylbutanoyl)-4-hydroxy-N—((R)-2-hydroxy-1-(4-(4-methylthiazol-5-yl)phenyl)ethyl)pyrrolidine-2-carboxamide] | < 10 | < 10

Reference: patent US20260295053A1, “COMPOUNDS FOR DEGRADATION AND INHIBITION OF KRAS (G12D) PROTEIN” (Shenzhen Ionova Life Science Co., Ltd., priority 2023, published 2026)
